Source: US20160145300A1, “ARTIFICIAL DECAPEPTIDE, MEDICATION AND METHOD OF INDUCING BREEDING OF CRUSTACEANS” (National Pingtung University of Science and technology, priority 2014, published 2016)
Marks after values point to notes of the source that are not given here.

How the values were obtained:
Format in all cases: in vivo
[1] = tested on: male shrimps (Litopenaeus vannamei); test: maturity of spermatophore in male shrimps after administration of sustainable releasing dosage
Protocol: After these, an effective amount of the artificially decapeptide is administrated to a crustacean, wherein, the effective amount of the artificially decapeptide may be 10 nanograms (ng) to 1000 ng, preferably 50 ng, per gram of body weight for each administrating. In one embodiment of the present embodiment a sustainable releasing dosage of the artificial decapeptide may be optionally prepared and administrated to the crustacean, so as to simplify the administration process. A method of preparing the sustainable releasing dosage of the artificially decapeptide, for example, may include formulating a great amount of the artificially decapeptide in an excipient, such as an excipient including oil. For example, 100 ng to 2000 ng of the artificially decapeptide may be formulated in 50 microliter (μl) to 200 μl of the excipient. With such arrangement, while the sustainable releasing dosage of the artificially decapeptide is administrated to the crustacean, the artificially decapeptide therein may be allowed to progressively release in the crustacean, thereby extending the inducing effect to the crustacean. […]
(§1) In the present test, the artificial decapetide is firstly formulated in the aforementioned sustainable releasing dosage and then administrated to each Litopenaeus vannamei. After that, the spermatophore development of each male shrimp is determined and recorded every 4 days after the administration, through observing the external characteristics spermatophore. Also, the spermatophore weight, as well as the sperm count, is precisely measured 44 days after the administration. On the other hand, the ovarian development of each female shrimp is also determined and recorded weekly 2-4 months after the administration through observing the external characteristics and the maturity of ovarian. Furthermore, the spawning times of each female shrimp may be also recorded. […]

[2] = tested on: female shrimps (Litopenaeus vannamei); test: ovarian development of female shrimps after administration; details: recorded weekly 2-4 months after the administration, percentage relative to overall Litopenaeus vannamei in the test
Protocol: (§2) After these, an effective amount of the artificially decapeptide is administrated to a crustacean, wherein, the effective amount of the artificially decapeptide may be 10 nanograms (ng) to 1000 ng, preferably 50 ng, per gram of body weight for each administrating. In one embodiment of the present embodiment a sustainable releasing dosage of the artificial decapeptide may be optionally prepared and administrated to the crustacean, so as to simplify the administration process. A method of preparing the sustainable releasing dosage of the artificially decapeptide, for example, may include formulating a great amount of the artificially decapeptide in an excipient, such as an excipient including oil. For example, 100 ng to 2000 ng of the artificially decapeptide may be formulated in 50 microliter (μl) to 200 μl of the excipient. With such arrangement, while the sustainable releasing dosage of the artificially decapeptide is administrated to the crustacean, the artificially decapeptide therein may be allowed to progressively release in the crustacean, thereby extending the inducing effect to the crustacean. Thus, in another embodiment of the present invention, the sustainable releasing dosage of the artificially decapeptide may be administrated to the crustacean every three to six months, preferably every four months, but not limited thereto. In other embodiment of the present invention, the artificially decapeptide may also be firstly formulated in saline, to forma solvent, and then, mixed with the excipient, wherein a volume ratio between the solvent and the excipient may be 1:1 to 1:3. Furthermore, in another embodiment, the excipient may include mineral oil, such as […] or incomplete adjuvant; vegetable oil, such as peanut oil, olive oil or coconut oil; fat adhesive, such as methylcellulose; or a composite of the aforementioned oil.
In the present test, the artificial decapeptide of the present invention is exemplified on numbers of Litopenaeus vannamei (Decapoda: Macrura). However, people in the art should easily realize the present invention is not limited thereto.
In the present test, the artificial decapetide is firstly formulated in the aforementioned sustainable releasing dosage and then administrated to each Litopenaeus vannamei. After that, the spermatophore development of each male shrimp is determined and recorded every 4 days after the administration, through observing the external characteristics spermatophore. Also, the spermatophore weight, as well as the sperm count, is precisely measured 44 days after the administration. On the other hand, the ovarian development of each female shrimp is also determined and recorded weekly 2-4 months after the administration through observing the external characteristics and the maturity of ovarian. Furthermore, the spawning times of each female shrimp may be also recorded. Please refer to TABLEs 1-3 and FIGS. 1-2, which illustrate gonadal promoting effects of the artificial decapeptide either on male or female shrimps (Litopenaeus vannamei). Wherein, TABLE 1 and FIGS. 1-2 show the maturity of spermatophore in male shrimps, including the development stage, spermatophore weight and sperm count per spermatophore, after the artificial decapeptide is administrated, in comparison with untreated male shrimps (control; marked as B in FIGS. 1-2), respectively.

[3] = tested on: female shrimps (Litopenaeus vannamei); test: spawning times of female shrimps after administration
Protocol: as §2
In the present test, the artificial decapeptide of the present invention is exemplified on numbers of Litopenaeus vannamei (Decapoda: Macrura). […]
as §1

[4] = 44 days after the administration

## artificial decapeptide: Synthetic 10-amino-acid peptide based on chicken GnRH-II (SEQ ID NO: 2); N-terminal Glu and C-terminal Gly unblocked (H-EHWSHGWYPG-OH; listed as Gallus gallus)
[1]; [4]
  sperm count per spermatophore: 68.5 ± 18.14 10^5/per spermatophore
  spermatophore weight: 0.0217 ± 0.007 g
[1]; in 44 days after the administration
  spermatophore development stage reached: 2.5
[2]; stage 0
  percentage of female shrimps at ovarian development stage 0: 0%^b
[2]; stage 0.5
  percentage of female shrimps at ovarian development stage 0.5: 20%^b
[2]; stage 1
  percentage of female shrimps at ovarian development stage 1: 0%^b
[2]; stage 1.5
  percentage of female shrimps at ovarian development stage 1.5: 0%^b
[2]; stage 2
  percentage of female shrimps at ovarian development stage 2: 0%^b
[2]; stage 2.5
  percentage of female shrimps at ovarian development stage 2.5: 0%^b
[2]; stage 3
  percentage of female shrimps at ovarian development stage 3: 0%^b
[3]; 0 spawnings, 8-16 weeks after administrating, percentage relative to overall Litopenaeus vannamei in the test
  percentage of female shrimps with spawning times 0: 20%^b
[3]; 3 spawnings, 8-16 weeks after administrating, percentage relative to overall Litopenaeus vannamei in the test
  percentage of female shrimps with spawning times 3: 0%^b
[3]; compared with current techniques (around one month)
  effective period: between two and four
[3]; compared with current techniques (fewer times of spawning)
  number of spawnings induced: four
